The text below walks through data of patent JP2012067022A, “ホスホマイシンを有効成分とする魚類のエドワジエラ症治療剤” (Meiji Seika Kaisha Ltd, priority 2010, dated 2012).

Experiment [1] has as its system Edwardsiella tarda E08-18 strain (エドワジエラ・タルダ E08−18株). The experiment in a line: Test Example 3: artificial infection treatment test (2) in red sea bream. The format is in vivo. As to conditions: for mortality rate: red sea bream juveniles (27 g), 4.6×10^6 CFU/mL per fish i.p., to day 14 after infection, untreated control 95%.
The subject of experiment [2] is Edwardsiella tarda (エドワジエラ・タルダ). The experiment in a line: Test Example 1: in vitro antibacterial activity (MIC, Japanese Society of Chemotherapy method). In kind it is cell-based. As to conditions: oxytetracycline hydrochloride-resistant strains; result in words.
Experiment [3] concerns Edwardsiella tarda E08-18 strain (エドワジエラ・タルダ E08−18株). The experiment in a line: Test Example 2: artificial infection treatment test (1) in red sea bream. The format is in vivo. As to conditions: 40 mg (potency)/kg oral in feed, 6 days.

Structures are written as SMILES.

Consider `C[C@@H]1O[C@@H]1P(=O)(O)O` [ホスホマイシン], for which the “recovery of feeding activity” value in experiment [1] (red sea bream juveniles, 40 mg (potency)/kg oral in feed, 6 days, compared with oxytetracycline hydrochloride and untreated groups) was “塩酸オキシテトラサイクリンや無投薬の群よりも摂餌活性の回復が早まる”; in experiment [3] (red sea bream juveniles, after bacterial inoculation), “摂餌活性の回復が早まる”. Further, in experiment [2], the antibacterial activity entry is recorded as “強い抗菌活性を示す”.
In the case of `C[C@@H]1O[C@@H]1P(=O)(O)O` [ホスホマイシン・カルシウム, カルシウム塩], the mortality rate in experiment [1] (40 mg (potency)/kg oral in feed, 6 days) is reported as 25%; in experiment [3] (red sea bream juveniles (29 g), 3.6×10^6 CFU/mL per fish i.p., to day 14 after infection, untreated control 95%), 10%.
For the compound `CN(C)[C@@H]1C(=O)C(C(N)=O)=C(O)[C@@]2(O)C(=O)C3=C(O)c4c(O)cccc4[C@@](C)(O)[C@H]3[C@H](O)[C@@H]12.Cl` [塩酸オキシテトラサイクリン], in experiment [1] (50 mg (potency)/kg oral in feed, 7 days), the mortality rate amounted to 100%.
